One data set deals with T1, Matrilysin (Homo sapiens, UniProt P09237).
T1 sequence (P09237 whole entry): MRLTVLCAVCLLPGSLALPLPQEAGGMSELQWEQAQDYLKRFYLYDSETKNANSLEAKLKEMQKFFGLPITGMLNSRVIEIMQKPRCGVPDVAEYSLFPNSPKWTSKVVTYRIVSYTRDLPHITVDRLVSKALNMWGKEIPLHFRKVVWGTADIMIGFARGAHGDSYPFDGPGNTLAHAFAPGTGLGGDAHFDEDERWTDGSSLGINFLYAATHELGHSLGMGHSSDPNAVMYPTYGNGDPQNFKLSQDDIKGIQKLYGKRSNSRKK
The data set is described as follows: Inhibition of MMP7 (unknown origin) expressed in Escherichia coli BL21(DE3) using Mca-Pro-Leu-Gly-Leu-Dpa-Ala-Arg-NH2 as substrate after 20 to 30 mins by spectrofluorimetric analysis.

Data set [1] deals with Prothrombin (Bos taurus, UniProt P00735). As to the kind of experiment: Inhibition of bovine plasma thrombin using chromogenix AB as substrate after 30 secs by UV-spectrophotometry.
In data set [2] the target is Retinoic acid receptor RXR-beta (Homo sapiens, UniProt P28702). The data set is described as follows: Agonist activity at RXRbeta (unknown origin).
Chain of Retinoic acid receptor RXR-beta (P28702 whole entry): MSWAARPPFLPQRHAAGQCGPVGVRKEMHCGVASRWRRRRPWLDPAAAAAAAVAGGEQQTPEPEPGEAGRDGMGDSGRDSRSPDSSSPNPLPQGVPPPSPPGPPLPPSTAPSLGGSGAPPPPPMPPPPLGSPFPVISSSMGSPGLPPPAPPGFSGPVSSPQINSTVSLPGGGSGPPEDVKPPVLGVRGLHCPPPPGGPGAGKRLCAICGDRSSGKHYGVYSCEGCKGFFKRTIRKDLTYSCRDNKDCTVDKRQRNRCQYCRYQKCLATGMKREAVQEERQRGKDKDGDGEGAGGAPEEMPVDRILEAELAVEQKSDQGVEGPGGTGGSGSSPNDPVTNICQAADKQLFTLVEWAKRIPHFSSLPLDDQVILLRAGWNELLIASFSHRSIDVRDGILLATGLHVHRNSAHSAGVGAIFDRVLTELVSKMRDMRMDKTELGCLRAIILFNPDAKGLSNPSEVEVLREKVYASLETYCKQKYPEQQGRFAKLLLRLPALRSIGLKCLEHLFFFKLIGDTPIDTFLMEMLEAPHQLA
Data set [3] concerns the target Retinoic acid receptor gamma (Homo sapiens, UniProt P13631). The data set is described as follows: Agonist activity at RARgamma (unknown origin).
The target in data set [4] is Retinoic acid receptor RXR-gamma (Homo sapiens, UniProt P48443). The data set is described as follows: Agonist activity at RXRgamma (unknown origin).
The target in data set [5] is Retinoic acid receptor beta (Homo sapiens, UniProt P10826). As to the kind of experiment: Agonist activity at RARbeta (unknown origin).
Chain of Retinoic acid receptor beta (P10826 whole entry): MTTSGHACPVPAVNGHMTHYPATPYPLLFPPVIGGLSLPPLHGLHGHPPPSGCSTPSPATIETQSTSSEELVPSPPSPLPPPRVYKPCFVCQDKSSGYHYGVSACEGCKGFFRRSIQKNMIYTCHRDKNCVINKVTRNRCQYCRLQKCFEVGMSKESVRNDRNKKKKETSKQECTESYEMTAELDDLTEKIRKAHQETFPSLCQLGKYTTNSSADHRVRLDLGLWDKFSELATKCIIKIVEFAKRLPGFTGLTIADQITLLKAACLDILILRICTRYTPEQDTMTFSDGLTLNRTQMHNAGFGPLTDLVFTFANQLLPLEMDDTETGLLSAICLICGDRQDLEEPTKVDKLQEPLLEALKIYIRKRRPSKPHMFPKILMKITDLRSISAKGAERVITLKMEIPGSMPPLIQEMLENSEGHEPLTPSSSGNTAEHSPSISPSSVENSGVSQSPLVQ
Data set [6] addresses Retinoic acid receptor alpha (Homo sapiens, UniProt P10276). The data set is described as follows: Agonist activity at RARaplha (unknown origin).
The next data set deals with MCF7. The data set is described as follows: Cytotoxicity against human MCF7 cells assessed as reduction in protein synthesis. In kind it is functional, cell-based.
A further data set relates to HeLa. The data set is described as follows: Cytotoxicity against human HeLa cells assessed as reduction in protein synthesis at 0.05 uM. The data set is classed as functional.
Data set [7] deals with Rattus norvegicus. The data set is described as follows: Anti-hypertensive activity in conscious spontaneously hypertensive Okamoto rat assessed as reduction in systolic blood pressure at 3 mg/kg, po measured up to 6 hrs post dose relative to control. Also on record: scale not given: the % may be the effect or the level left. In kind it is functional.
The target of a further data set is Interstitial collagenase (Homo sapiens, UniProt P03956). As to the kind of experiment: Inhibition of human interstitial recombinant N-terminal MMP1 expressed in Escherichia coli BL21(DE3) using Mca-Pro-Leu-Gly-Leu-Dpa-Ala-Arg-NH2 as substrate after 20 to 30 mins by spectrofluorimetric analysis.
Chain of Interstitial collagenase (P03956 whole entry): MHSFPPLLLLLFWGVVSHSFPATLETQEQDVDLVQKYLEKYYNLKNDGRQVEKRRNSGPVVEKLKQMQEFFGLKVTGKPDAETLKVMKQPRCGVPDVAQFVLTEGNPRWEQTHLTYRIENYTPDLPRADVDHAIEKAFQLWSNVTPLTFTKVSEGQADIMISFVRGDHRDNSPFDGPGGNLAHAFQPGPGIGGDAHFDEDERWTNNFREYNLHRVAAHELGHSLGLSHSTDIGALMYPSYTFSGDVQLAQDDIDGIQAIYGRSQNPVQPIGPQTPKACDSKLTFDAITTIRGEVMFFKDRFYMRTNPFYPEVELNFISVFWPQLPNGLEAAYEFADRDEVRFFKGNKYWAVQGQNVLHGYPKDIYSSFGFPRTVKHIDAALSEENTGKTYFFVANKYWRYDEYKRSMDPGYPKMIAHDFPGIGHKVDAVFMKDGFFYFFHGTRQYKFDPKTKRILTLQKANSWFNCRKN
A further data set has as its target Collagenase 3 (Homo sapiens, UniProt P45452). The data set is described as follows: Inhibition of MMP13 (unknown origin) expressed in Escherichia coli BL21(DE3) using Mca-Pro-Leu-Gly-Leu-Dpa-Ala-Arg-NH2 as substrate after 20 to 30 mins by spectrofluorimetric analysis.
The target in data set [8] is 5-hydroxytryptamine receptor 2C (Homo sapiens, UniProt P28335). The data set is described as follows: Agonist activity at human 5-HT2C receptor expressed in mouse NIH/3T3 cells assessed as induction of IP3 formation after 0.5 hrs. In kind it is functional, cell-based.
Chain of 5-hydroxytryptamine receptor 2C (P28335 whole entry): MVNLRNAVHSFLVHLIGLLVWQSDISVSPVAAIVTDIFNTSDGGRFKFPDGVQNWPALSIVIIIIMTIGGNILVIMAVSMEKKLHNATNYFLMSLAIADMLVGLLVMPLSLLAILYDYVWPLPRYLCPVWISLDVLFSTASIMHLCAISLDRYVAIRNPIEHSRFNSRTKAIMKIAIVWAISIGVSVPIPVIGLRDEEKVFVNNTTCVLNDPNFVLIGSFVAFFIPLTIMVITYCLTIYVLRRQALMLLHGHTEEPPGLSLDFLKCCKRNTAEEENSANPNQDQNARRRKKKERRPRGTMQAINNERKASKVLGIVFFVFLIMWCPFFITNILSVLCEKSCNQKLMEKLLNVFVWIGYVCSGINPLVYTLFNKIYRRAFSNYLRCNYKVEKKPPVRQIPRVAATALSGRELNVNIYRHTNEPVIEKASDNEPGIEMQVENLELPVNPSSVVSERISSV
Data set [9] deals with Human immunodeficiency virus 1. The data set is described as follows: Antiviral activity against HIV1. The data set is classed as functional.
In the next data set the test system is Staphylococcus aureus. The data set is described as follows: Antibacterial activity against methicillin-resistant Staphylococcus aureus. The data set is classed as functional.
A further data set concerns Enterococcus faecalis. As to the kind of experiment: Antibacterial activity against Enterococcus faecalis. In kind it is functional.
Data set [10] in a line: Inhibition of bacterial DNA gyrase subunit B. Also on record: species or system Bacteria.
For another data set, the species on record is Homo sapiens. As to the kind of experiment: Antagonist activity at nAChR (unknown origin) relative to (+/-)-mecamylamine.
The target in data set [11] is Prothrombin (Homo sapiens, UniProt P00734). As to the kind of experiment: Inhibition of human plasma thrombin using chromogenix AB as substrate after 30 secs by UV-spectrophotometry.
Data set [12] concerns Rattus norvegicus. As to the kind of experiment: Anti-hypertensive activity in conscious spontaneously hypertensive Okamoto rat assessed as reduction in systolic blood pressure at 10 mg/kg, po measured up to 6 hrs post dose relative to control. In kind it is functional. The arrangement: scale not given: the % may be the effect or the level left.
A short description of data set [13]: Tmax in Sprague-Dawley rat at 10 mg/kg, po measured up to 120 mins post dose by HPLC analysis. The data set is classed as ADME, organism-based. The settings on record: in vivo.
Data set [14] can be described thus: Half life in Hartley guinea pig at 1 mg/kg, iv measured up to 180 mins post dose by HPLC analysis. The data set is classed as ADME, organism-based, Cavia porcellus. The settings on record: in vivo.
Data set [15] has as its target Integrin alpha-IIb/beta-3 (Homo sapiens, UniProt P05106+P08514). As to the kind of experiment: Inhibition of human GP2b/3a interaction with human fibrinogen after 3 hrs by ELISA. The data set is classed as protein-complex assay. For orientation: ELISA stands for enzyme-linked immunosorbent assay.
Data set [16] in a line: Cmax in Sprague-Dawley rat at 10 mg/kg, po measured up to 120 mins post dose by HPLC analysis. Also on record: dose 10 mg/kg, route oral. In kind it is ADME, organism-based. The settings on record: in vivo.
The test system of a further data set is 1A9. The data set is described as follows: Cytotoxicity against human 1A9 cells. The data set is classed as functional, cell-based.

The results in this text go back to ChEMBL document CHEMBL4033775, “Natural-Products-Inspired Use of the gem-Dimethyl Group in Medicinal Chemistry” (J Med Chem, 2018).

SMILES strings stand for the structures. In brackets after ≈: the same amount, converted by molar mass.

Chain of Retinoic acid receptor alpha (P10276 whole entry): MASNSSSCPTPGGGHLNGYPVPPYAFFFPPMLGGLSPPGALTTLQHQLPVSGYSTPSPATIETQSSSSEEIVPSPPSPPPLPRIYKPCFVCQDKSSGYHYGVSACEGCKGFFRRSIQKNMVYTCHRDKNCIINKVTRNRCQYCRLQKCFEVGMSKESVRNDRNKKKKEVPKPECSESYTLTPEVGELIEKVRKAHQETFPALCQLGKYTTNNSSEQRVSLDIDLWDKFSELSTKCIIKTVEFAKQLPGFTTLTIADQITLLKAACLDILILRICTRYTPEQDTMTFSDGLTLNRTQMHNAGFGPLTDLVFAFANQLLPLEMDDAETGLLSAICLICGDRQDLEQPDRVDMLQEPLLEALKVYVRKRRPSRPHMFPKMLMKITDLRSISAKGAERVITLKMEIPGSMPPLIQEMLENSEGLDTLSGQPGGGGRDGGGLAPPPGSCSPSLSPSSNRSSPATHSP
Chain of Integrin alpha-IIb/beta-3 (P05106 27-788 limits assumed): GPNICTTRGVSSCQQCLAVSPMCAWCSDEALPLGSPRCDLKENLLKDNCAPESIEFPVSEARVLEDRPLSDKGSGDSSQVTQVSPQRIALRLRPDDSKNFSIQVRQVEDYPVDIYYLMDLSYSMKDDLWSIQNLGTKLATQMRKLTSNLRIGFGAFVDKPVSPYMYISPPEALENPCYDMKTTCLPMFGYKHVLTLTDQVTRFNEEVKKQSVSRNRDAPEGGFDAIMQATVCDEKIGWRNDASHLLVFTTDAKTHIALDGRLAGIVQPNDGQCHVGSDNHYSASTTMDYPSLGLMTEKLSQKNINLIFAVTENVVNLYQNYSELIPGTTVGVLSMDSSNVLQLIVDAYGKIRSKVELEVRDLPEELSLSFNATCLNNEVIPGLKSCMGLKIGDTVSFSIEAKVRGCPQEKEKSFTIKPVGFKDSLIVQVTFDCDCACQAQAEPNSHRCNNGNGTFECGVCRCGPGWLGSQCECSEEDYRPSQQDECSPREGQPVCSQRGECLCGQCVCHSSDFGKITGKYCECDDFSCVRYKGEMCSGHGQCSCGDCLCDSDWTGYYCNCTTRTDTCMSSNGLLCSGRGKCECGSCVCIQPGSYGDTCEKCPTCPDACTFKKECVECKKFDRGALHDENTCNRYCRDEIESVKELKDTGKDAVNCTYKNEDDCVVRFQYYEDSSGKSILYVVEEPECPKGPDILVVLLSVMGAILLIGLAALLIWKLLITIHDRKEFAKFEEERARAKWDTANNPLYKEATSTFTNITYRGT
Chain of Integrin alpha-IIb/beta-3 (P08514 32-887 limits assumed): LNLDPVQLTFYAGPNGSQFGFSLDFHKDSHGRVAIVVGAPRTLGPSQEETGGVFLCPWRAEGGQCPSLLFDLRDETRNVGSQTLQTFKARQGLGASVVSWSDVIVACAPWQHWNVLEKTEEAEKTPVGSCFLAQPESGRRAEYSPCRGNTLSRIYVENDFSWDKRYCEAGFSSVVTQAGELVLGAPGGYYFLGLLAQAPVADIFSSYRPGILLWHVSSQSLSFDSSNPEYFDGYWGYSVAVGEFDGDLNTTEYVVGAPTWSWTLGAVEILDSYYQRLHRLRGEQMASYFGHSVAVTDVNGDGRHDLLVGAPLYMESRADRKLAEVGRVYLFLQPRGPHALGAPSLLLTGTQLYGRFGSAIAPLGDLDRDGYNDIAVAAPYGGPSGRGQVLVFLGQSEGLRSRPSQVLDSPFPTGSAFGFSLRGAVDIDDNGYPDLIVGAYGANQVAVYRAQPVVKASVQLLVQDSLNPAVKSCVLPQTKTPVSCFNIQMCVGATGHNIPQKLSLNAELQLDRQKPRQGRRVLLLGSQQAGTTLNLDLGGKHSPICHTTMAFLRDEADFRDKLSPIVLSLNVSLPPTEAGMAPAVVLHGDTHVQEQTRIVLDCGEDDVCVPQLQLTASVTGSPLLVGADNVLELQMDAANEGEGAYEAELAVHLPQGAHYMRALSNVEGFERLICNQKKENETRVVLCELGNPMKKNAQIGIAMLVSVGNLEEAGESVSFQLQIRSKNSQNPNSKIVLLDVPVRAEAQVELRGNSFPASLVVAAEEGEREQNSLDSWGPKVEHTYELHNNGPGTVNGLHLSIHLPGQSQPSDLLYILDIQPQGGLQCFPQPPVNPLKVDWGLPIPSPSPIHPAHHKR
Chain of Integrin alpha-IIb/beta-3 (P08514 891-1039 limits assumed): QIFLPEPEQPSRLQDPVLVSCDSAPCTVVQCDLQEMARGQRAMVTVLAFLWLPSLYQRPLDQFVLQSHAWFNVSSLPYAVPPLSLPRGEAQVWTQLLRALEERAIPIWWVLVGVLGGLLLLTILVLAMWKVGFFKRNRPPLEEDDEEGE
Chain of Retinoic acid receptor gamma (P13631 whole entry): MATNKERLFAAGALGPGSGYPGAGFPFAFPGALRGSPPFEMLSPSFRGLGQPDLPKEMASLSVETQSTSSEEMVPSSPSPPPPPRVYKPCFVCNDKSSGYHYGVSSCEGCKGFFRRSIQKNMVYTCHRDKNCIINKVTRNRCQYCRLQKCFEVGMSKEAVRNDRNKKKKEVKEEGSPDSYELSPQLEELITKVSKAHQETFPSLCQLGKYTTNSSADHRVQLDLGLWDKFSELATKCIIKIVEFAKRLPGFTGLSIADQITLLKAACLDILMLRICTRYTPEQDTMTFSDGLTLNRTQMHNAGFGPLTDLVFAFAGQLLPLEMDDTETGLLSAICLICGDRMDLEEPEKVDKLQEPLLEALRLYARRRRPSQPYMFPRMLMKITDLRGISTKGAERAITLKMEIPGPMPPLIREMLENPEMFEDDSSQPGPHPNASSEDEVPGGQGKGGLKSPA

In general, IC50 refers to the point on the concentration scale where inhibition reaches its midpoint. `COc1ccc(S(=O)(=O)N2CCSCC2C(=O)NO)cc1` (stereo unspecified) gave an IC50 at Matrilysin of 2030 nM.

What is called Ki is a measure of affinity in units of concentration, obtained from inhibition or displacement. The compound `N=C(N)NCCC[C@H](NS(=O)(=O)c1cccc2c1NCCC2)C(=O)N1CCC(CCO)CC1` displayed a Ki at Prothrombin [1] of 500 nM.

A word on the EC50: it is the concentration that produces a half-maximal response. As to `C=C(c1ccc(C(=O)O)cc1)c1cc2c(cc1C)CCCC2(C)C`, the EC50 is 2400 nM in data set [2]; over 10 µM in data set [3]; 2600 nM in [4]; over 10 µM in [5]; over 10 µM in data set [6].

The inhibition is how much of the control response was suppressed. As for `COC(=O)C[C@](O)(CCCC(C)(C)O)C(=O)O[C@@H]1C(OC)=C[C@]23CCCN2CCc2cc4c(cc2[C@H]13)OCO4` [OMACETAXINE MEPESUCCINATE], the IC50 in the data set with MCF7 was found to be 0.87 nM. Besides, the inhibition at 0.05 µM in the data set with HeLa amounted to 50%.

Consider `CC1(C)Oc2ccc(C#N)cc2C(N2CCCC2=O)C1O` (single isomer, unassigned; (+)) [CROMAKALIM], for which, in the data set with Rattus norvegicus [7], the Activity is 14%.

In the case of `COc1ccc(S(=O)(=O)N2CCCSC[C@@H]2C(=O)NO)cc1`, the IC50 at Interstitial collagenase came out at 64 nM; at Collagenase 3, 1.9 nM; at Matrilysin it was 1100 nM.

For the compound `COc1ccc2c(c1)-c1c(cnn1C[C@H](C)N)C2`, in data set [8], the Ki was 2.51 nM.

In [9], `C=C(C)[C@@H]1CC[C@]2(C(=O)O)CC[C@]3(C)[C@H](CC[C@@H]4[C@@]5(C)CC[C@H](O)C(C)(C)[C@@H]5CC[C@]43C)[C@@H]12` [BETULINIC ACID] showed an EC50 of 1400 nM.

`CCCc1cc(=O)oc2c3c(c4c(c12)OC(C)(C)C=C4)O[C@H](C)[C@@H](C)[C@@H]3O` [CALANOLIDE A] displayed an EC50 in data set [9] of 2.85 nM.

A word on the MIC: it is the least concentration at which growth counts as inhibited. Consider `Cc1cc(O)cc(O)c1-c1cc(O)cc2cc3c(c(O)c12)C(=O)c1c(O)cc(O)c(Cl)c1C3(C)C`, for which the MIC in the data set with Staphylococcus aureus was 3.1 µg/mL (≈ 6.29 µM); in the data set on Enterococcus faecalis it was 0.8 µg/mL (≈ 1.62 µM).

The compound `CO[C@@H]1[C@@H](OC(=O)c2ccc(C)[nH]2)[C@@H](O)[C@H](Oc2ccc3c(O)c(NC(=O)c4ccc(O)c(CC=C(C)C)c4)c(=O)oc3c2Cl)OC1(C)C` [CHLOROBIOCIN] gave an IC50 in [10] of 30 nM.

With `COc1ccc2c(c1)-c1c(cnn1C[C@H](C)N)C2(C)C`, the Ki in data set [8] was 2.51 nM.

Compound `CN[C@]1(C)[C@H]2CC[C@@H](C2)C1(C)C` had a fold change (FC) in the data set filed under Homo sapiens of 1.4.

Take `CC1CNc2c(cccc2S(=O)(=O)N[C@@H](CCCNC(=N)N)C(=O)N2CCC(CCO)CC2)C1` (mixture of isomers): the Ki was 50 nM at Prothrombin [1] and 40 nM at Prothrombin [11].

`O=C1CCCN1[C@@H]1c2cc([N+](=O)[O-])ccc2OC[C@H]1O`: the Activity in the data set with Rattus norvegicus [12] is on record as 5%.

In the case of `CC1Oc2ccc([N+](=O)[O-])cc2[C@@H](N2CCCC2=O)[C@@H]1O` (stereo partly specified), in the data set on Rattus norvegicus [12], the Activity is recorded as 34%.

`CO[C@@H]1[C@@H](OC(N)=O)[C@@H](O)[C@H](Oc2ccc3c(O)c(NC(=O)c4ccc(O)c(CC=C(C)C)c4)c(=O)oc3c2C)OC1(C)C` [NOVOBIOCIN] came in with an IC50 in data set [10] of 80 nM.

A word on the Tmax: it is the time from dosing to the highest level. What is called half-life is how long it takes for the measured level to halve. By Cmax is commonly meant the maximum level reached in the sampled fluid or tissue. For `CCOC(=O)CC1CCN(C(=O)CC(CC)NC(=O)c2ccc(C(=N)N3CCSC3)cc2F)CC1` (racemic), in data set [13], the Tmax was 30 min. This compound also came in with a half-life in data set [14] of 110 min. Moreover, in [15], inhibition was half-maximal at 2.3 nM (IC50). In data set [16], this compound gave a Cmax of 1210 ng/mL.

In the data set with 1A9, `CC(=O)O[C@H]1C(=O)[C@@]2(C)[C@H]([C@H](OC(=O)c3ccccc3)[C@]3(O)C[C@H](OC(=O)[C@H](O)[C@@H](NC(=O)c4ccccc4)c4ccccc4)C(C)=C1C3(C)C)[C@]1(OC(C)=O)CO[C@@H]1C[C@@H]2O` [PACLITAXEL] registered an IC50 of 3.71 nM.
